Experiments:
[1] = molecular target: protein-protein interaction between SOS1 and KRAS G12D (Homo sapiens (Human), UniProt Q07889); test: KRAS::SOS1 AlphaScreen Binding Assay
How it was run: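 Nucleotide-exchange interaction read by AlphaScreen (GSH acceptor / streptavidin donor beads, 10 μg/mL each): 10 nM KRAS G12D(1-169)-Avi, 10 μM GDP, 5 nM GST-SOS1(564-1049), 1% DMSO. Compound preincubated 30 min, then beads 60 min at RT in the dark; 11-point 1:5 series from 100 μM, duplicates; IC50 by 4-parameter logistic fit.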

[2] = Metabolic (microsomal) stability assay, mouse liver microsomes (MLM); assay type: in vitro ADME; conditions: 1 μM test compound, 37° C.
Protocol: (§1) Metabolic (Microsomal) Stability Assay: The metabolic degradation of the test compound is assayed at 37° C. with pooled liver microsomes (mouse (MLM), rat (RLM) or human (HLM)). The final incubation volume of 74 μL per time point contains TRIS buffer (pH 7.5; 0.1 M), magnesium chloride (6.5 mM), microsomal protein (0.5 mg/mL for mouse/rat, 1 mg/mL for human specimens) and the test compound at a final concentration of 1 μM. Following a short preincubation period at 37° C., the reactions are initiated by addition of 8 μL beta-nicotinamide adenine dinucleotide phosphate, reduced form (NADPH, 10 mM) and terminated by transfering an aliquot into solvent after different time points. Additionally, the NADPH-independent degradation is monitored in incubations without NADPH, terminated at the last time point by addition of acetonitrile. The quenched incubations are pelleted by centrifugation (1811 g, 5 min). An aliquot of the supernatant is assayed by LC-MS/MS for the amount of parent compound. In vitro intrinsic clearance (CLint, in vitro) is calculated from the time course of the disappearance of the test drug during the microsomal incubation. Each plot is fitted to the first-order elimination rate constant as C(t)=C0*exp(−ke*t), where C(t) and C0 are the concentration of unchanged test drug at incubation time t and that at preincubation and ke is the disappearance rate constant of the unchanged drug. Subsequently, CLint, in vitro (μL min^−1·amount protein) values are converted to CLint, in vitro (mL min^−1·kg^−1) for the whole body. CLint, in vitro data are scaled up using physiological parameters. For better across species comparison the predicted clearance is expressed as percent of the liver blood flow [% QH] in the individual species. In general, high stability (corresponding to low % QH) of the compounds across species is desired.

[3] = Metabolic (microsomal) stability assay, rat liver microsomes (RLM); assay type: in vitro ADME; conditions: 1 μM test compound, 37° C.
Protocol: as §1

[4] = Metabolic (microsomal) stability assay, human liver microsomes (HLM); assay type: in vitro ADME; conditions: 1 μM test compound, 37° C.
Protocol: as §1

CYP3A4 = CYP3A4 (Homo sapiens (Human), UniProt P08684); test: Time dependent inhibition of CYP3A4 assay (TDI 3A4); assay type: in vitro ADME; conditions: hydroxy-midazolam formation after 30 min relative to 0 min preincubation; 25 uM compound; human liver microsomes; midazolam substrate
Protocol: Time Dependent Inhibition of CYP3A4 Assay (TDI 3A4):
After preincubation, the incubate is diluted 1:10 and the substrate midazolam is added for the main incubation (15 min). The main incubation is quenched with acetonitrile and the formation of hydroxy-midazolam is quantified via LC/MS-MS. The formation of hydroxy-midazolam from the 30 min preincubation relative to the formation from the 0 min preincubation is used as a readout. Values of less than 100% mean that the substrate midazolam is metabolized to a lower extend upon 30 min preincubation compared to 0 min preincubation. In general low effects upon 30 min preincubation are desired (corresponding to values close to 100%)

[5] = system: ERK phosphorylation in DLD-1 cells (KRAS G13D); test: ERK Phosphorylation Assay (AlphaLISA SureFire Ultra p-ERK1/2); assay type: cell-based; conditions: Homo sapiens, 1 h compound, EGF 50 ng/mL 10 min, read-out: pERK
Protocol: ERK Phosphorylation Assay
Low IC50 values are indicative of high potency of the SOS1 inhibitor compounds in this assay setting.
ERK phosphorylation assays are performed using the following human cell lines: DLD-1 (ATCC CCL-221): human colon cancer with a KRAS G13D mutation;
DLD-1 cells (ATCC CCL-221) are seeded at 50,000 cells per well in/60 μL of RPMI with 10% FBS, non-essential amino acids, pyruvate and glutamax in Greiner TC 384 plates. The cells are incubated for 1 h at room temperature and then incubated overnight in an incubator at 37° C. and 5% CO2 in a humidified atmosphere. 60 nL compound solution (10 mM DMSO stock solution) is then added using a Labcyte Echo 550 device. After a 1 h incubation in the aforementioned incubator, 3 μL Epidermal Growth Factor (EGF, final concentration 50 ng/mL) is added. 10 minutes later the medium is removed, and the cells lysed by addition of 20 μL of 1.6-fold lysis buffer from the AlphaLISA SureFire Ultra pERK1/2 (Thr202/Tyr204) Assay Kit with added protease inhibitors, 100 nM trametinib+100 nM staurosporine. After 20 minutes of incubation at room temperature with shaking, 6 μL of each lysate sample is transferred to a 384-well Proxiplate and analyzed for pERK (Thr202/Tyr204) with the AlphaLISA SureFire Ultra pERK1/2 (Thr202/Tyr204) Assay Kit. 3 μL Acceptor Mix and 3 μL Donor Mix are added under subdued light and incubated for 2 h at room temperature in the dark, before the signal is measured on a Perkin Elmer Envision plate reader using 384 AlphaScreen settings for Proxiplates. Data are fitted by iterative calculation with variable hill slope. The sigmoidal curve slope is fitted using a default fitting curve to ascertain IC50 values.

[6] = Table 20, KRAS::SOS1 AlphaScreen (SOS1 / KRAS G12D)
[7] = KRAS G12D::SOS1 AlphaScreen, measured without EDTA unless marked with an asterisk

protein-protein interaction between SOS1 and KRAS G12D, sequence (Q07889 564-1049, stated change not applied): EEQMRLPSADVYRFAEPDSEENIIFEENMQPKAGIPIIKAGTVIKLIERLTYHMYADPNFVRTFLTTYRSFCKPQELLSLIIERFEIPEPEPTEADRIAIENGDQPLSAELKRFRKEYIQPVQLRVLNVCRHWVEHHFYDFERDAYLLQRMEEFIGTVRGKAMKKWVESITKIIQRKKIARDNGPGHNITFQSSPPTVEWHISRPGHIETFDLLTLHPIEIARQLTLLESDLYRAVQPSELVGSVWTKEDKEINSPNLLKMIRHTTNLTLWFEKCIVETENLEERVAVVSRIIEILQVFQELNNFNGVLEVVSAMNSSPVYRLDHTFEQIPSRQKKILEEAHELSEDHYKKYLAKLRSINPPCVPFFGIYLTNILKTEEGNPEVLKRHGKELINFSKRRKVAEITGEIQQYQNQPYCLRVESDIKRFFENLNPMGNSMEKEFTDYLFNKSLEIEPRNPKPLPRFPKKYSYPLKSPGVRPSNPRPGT
CYP3A4, sequence (P08684 whole entry): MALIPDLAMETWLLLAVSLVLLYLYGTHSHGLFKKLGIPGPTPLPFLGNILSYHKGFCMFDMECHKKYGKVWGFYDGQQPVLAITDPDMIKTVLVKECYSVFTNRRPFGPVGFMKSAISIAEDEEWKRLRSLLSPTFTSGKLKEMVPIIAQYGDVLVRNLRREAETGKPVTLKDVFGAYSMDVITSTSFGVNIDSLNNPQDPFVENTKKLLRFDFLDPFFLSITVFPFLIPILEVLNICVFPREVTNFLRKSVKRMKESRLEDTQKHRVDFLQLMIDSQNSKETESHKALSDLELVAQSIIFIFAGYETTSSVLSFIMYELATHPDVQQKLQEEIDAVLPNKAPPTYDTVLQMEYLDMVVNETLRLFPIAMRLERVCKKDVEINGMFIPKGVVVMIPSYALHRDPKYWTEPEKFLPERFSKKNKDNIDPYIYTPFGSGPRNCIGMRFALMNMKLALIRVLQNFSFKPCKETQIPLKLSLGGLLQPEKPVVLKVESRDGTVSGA

IC50 [1, 6] [nM] | MLM [% QH] [2] [% QH] | RLM [% QH] [3] [% QH] | HLM [% QH] [4] [% QH] | TDI 3A4 [%] (CYP3A4) | IC50 [1, 7] [nM] | IC50 [5] [nM] | Structure (SMILES)
– | 48 | 38 | 24 | 87 | 26 | – | Cc1c(=O)n([C@@H]2C[C@H]2C(F)F)cc2c(N[C@H](C)c3cccc(C(F)F)c3F)ncnc12 [I-166]
– | 51 | 37 | <24 | 82 | 12 | – | Cc1c(=O)n(C23CC(F)(C2)C3)cc2c(N[C@H](C)c3cccc(C(F)F)c3F)ncnc12 [I-170]
– | 64 | 44 | <24 | 84 | 12 | – | Cc1c(=O)n(C23CC(C2)C3)cc2c(N[C@H](C)c3cccc(C(F)F)c3F)ncnc12 [I-169]
– | – | – | – | 87 | 3 | 118 | Cc1nc(N[C@H](C)c2cccc(C(F)F)c2C)c2cn(C3(C)CCOC3)c(=O)cc2n1 (stereo partly drawn) [I-123]
4 | – | – | – | 84 | – | 74 | Cc1nc(N[C@H](C)c2cccc(C(C)(F)F)c2F)c2cn(C3(CF)CC3)c(=O)cc2n1 [I-53]
13 | <24 | <23 | <24 | 90 | – | – | Cc1nc(N[C@H](C)c2cccc(C(F)(F)F)c2)c2cn(C3(C)CC3)c(=O)cc2n1 [I-25]
6 | – | – | – | 92 | – | 81 | Cc1nc(N[C@H](C)c2cccc(C(F)(F)F)c2C)c2cn(C3CCOCC3)c(=O)cc2n1 [I-49]

Second part, the molecule before the results:

Structure (SMILES) | IC50 [1, 6] [nM] | MLM [% QH] [2] [% QH] | RLM [% QH] [3] [% QH] | HLM [% QH] [4] [% QH] | TDI 3A4 [%] (CYP3A4) | IC50 [1, 7] [nM] | IC50 [5] [nM]
Cc1nc(N[C@H](C)c2cccc(C(F)(F)F)c2F)c2cn(C3(C(F)F)CC3)c(=O)cc2n1 [I-98] | 8 | <24 | <23 | <24 | 85 | – | –
Cc1nc(N[C@H](C)c2cccc(C(F)F)c2F)c2cn(C3(CF)CC3)c(=O)c(F)c2n1 [I-81] | 6 | 64 | <23 | <24 | 85 | – | –
Cc1nc(N[C@H](C)c2cccc(C(C)(F)F)c2F)c2cn(C3(CF)CC3)c(=O)c(F)c2n1 [I-87] | 4 | – | – | – | 81 | – | 100
Cc1nc(N[C@H](C)c2cccc(C(C)(F)F)c2)c2cn(C3(C)CC3)c(=O)cc2n1 [I-50] | 9 | <24 | <23 | <24 | 82 | – | –
Cc1nc(N[C@H](C)c2cccc(C(F)F)c2F)c2cn(C3(C)CC3)c(=O)c(F)c2n1 [I-80] | 9 | 50 | <23 | <24 | 86 | – | –
Cc1nc(N[C@H](C)c2cccc(C(C)(F)F)c2F)c2cn(C3(C(F)F)CC3)c(=O)cc2n1 [I-54] | 5 | 55 | <23 | <24 | 84 | – | –
